Assay results: patent publication US20230114728A1 (Venatorx Pharmaceuticals, Inc., priority 2019, published 2023)
In brackets after ≈: the same amount, converted by molar mass. Where two headings read alike, the source gives them in different places.

Experiments:
Assay type in all cases: cell-based
[1] = system: K. pneumoniae UMM producing SHV-5 and KPC-2; test: Broth microdilution MIC in CAMHB; details: Klebsiella pneumoniae, read-out: Minimum Inhibitory Concentration, K. pneumoniae UMM
Procedure, shortened: (§1)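 Hyper-permeable or efflux-deficient strains serve to probe outer-membrane penetration. Growth inhibition is scored visually after 16-20 h at 37° C in CAMHB, starting from 2-8×10^5 CFU/mL.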

E. coli 901C = test: Broth microdilution MIC in CAMHB; details: Escherichia coli; E. coli 901C (hyper-permeable); MHB; read-out: Minimum Inhibitory Concentration, E. coli 901C
Procedure, shortened: as §1

E. coli AG100 = test: Broth microdilution MIC in CAMHB; details: Escherichia coli; E. coli AG100 (wild-type parent); MHB; read-out: Minimum Inhibitory Concentration, E. coli AG100
Procedure, shortened: as §1

E. coli D22 = test: Broth microdilution MIC in CAMHB; details: Escherichia coli; E. coli D22 (hyper-permeable); MHB; read-out: Minimum Inhibitory Concentration, E. coli D22
Procedure, shortened: as §1

E. coli AG100A = test: Broth microdilution MIC in CAMHB; details: Escherichia coli, read-out: Minimum Inhibitory Concentration, E. coli AG100A
Procedure, shortened: as §1

N. gonorrhoeae H041 = test: Liquid broth MIC in Fastidious broth; details: Neisseria gonorrhoeae
Procedure, shortened: (§2)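 Mosaic-PBP2 strains grown 24 h on chocolate agar (36 °C, 5% CO2), then direct-suspended in saline and OD600-adjusted. Twofold compound dilutions in Fastidious broth inoculated at 5×10^5 CFU/mL and incubated ~24 h at 36 °C, 5% CO2. MIC read visually as lowest concentration with <10% growth versus full-growth wells.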

N. gonorrhoeae WHO Q = test: Liquid broth MIC in Fastidious broth; details: Neisseria gonorrhoeae
Procedure, shortened: as §2

N. gonorrhoeae WHO Z = test: Liquid broth MIC in Fastidious broth; details: Neisseria gonorrhoeae
Procedure, shortened: as §2

N. gonorrhoeae WHO L = test: Liquid broth MIC in Fastidious broth; details: Neisseria gonorrhoeae, Fastidious broth
Procedure, shortened: (§3)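 Colonies were swabbed from chocolate agar after 24 h growth and standardised by optical density at 600 nm. Compounds were serially diluted twofold in Fastidious broth, and bacteria added to give 5×10^5 CFU/mL. After about 24 h at 36 °C in 5% CO2, the lowest concentration allowing under 10% growth was taken as MIC.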

N. gonorrhoeae WHO K = test: Liquid broth MIC in Fastidious broth; details: Neisseria gonorrhoeae
Procedure, shortened: as §2

N. gonorrhoeae WHO G = test: Liquid broth MIC in Fastidious broth; details: Neisseria gonorrhoeae, Fastidious broth
Procedure, shortened: as §3

N. gonorrhoeae FA1090 = test: Liquid broth MIC in Fastidious broth; details: Neisseria gonorrhoeae, Fastidious broth
Procedure, shortened: as §3

[2] = system: N. gonorrhoeae ATCC 49226; test: Liquid broth MIC in Fastidious broth; details: Neisseria gonorrhoeae, ATCC49226, Fastidious broth
Procedure, shortened: as §3

[3] = H041, read-out: Minimum Inhibitory Concentration, N. gonorrhoeae H041
[4] = read-out: Minimum Inhibitory Concentration, N. gonorrhoeae WHO Q
[5] = read-out: Minimum Inhibitory Concentration, N. gonorrhoeae WHO Z
[6] = N. gonorrhoeae strain WHO L, read-out: Minimum Inhibitory Concentration, N. gonorrhoeae WHO L
[7] = read-out: Minimum Inhibitory Concentration, N. gonorrhoeae WHO K
[8] = N. gonorrhoeae strain WHO G, read-out: Minimum Inhibitory Concentration, N. gonorrhoeae WHO G
[9] = N. gonorrhoeae strain FA1090, read-out: Minimum Inhibitory Concentration, N. gonorrhoeae FA1090
[10] = N. gonorrhoeae strain ATCC 49226, read-out: Minimum Inhibitory Concentration, N. gonorrhoeae ATCC 49226
[11] = H041, read-out: Minimum Inhibitory Concentration, H041
[12] = read-out: Minimum Inhibitory Concentration, WHO Q
[13] = read-out: Minimum Inhibitory Concentration, WHO Z
[14] = N. gonorrhoeae WHO L, read-out: Minimum Inhibitory Concentration, WHO L
[15] = read-out: Minimum Inhibitory Concentration, WHO K
[16] = N. gonorrhoeae WHO G, read-out: Minimum Inhibitory Concentration, WHO G
[17] = N. gonorrhoeae FA1090, read-out: Minimum Inhibitory Concentration, FA1090
[18] = N. gonorrhoeae ATCC 49226, read-out: Minimum Inhibitory Concentration, ATCC 49226

| SMILES | MIC [1] [µg/mL] | MIC (E. coli 901C) [µg/mL] | MIC (E. coli AG100) [µg/mL] | MIC (E. coli D22) [µg/mL] | MIC (E. coli AG100A) [µg/mL] | MIC (N. gonorrhoeae H041; [3]) [µg/mL] | MIC (N. gonorrhoeae WHO Q; [4]) [µg/mL] | MIC (N. gonorrhoeae WHO Z; [5]) [µg/mL] | MIC (N. gonorrhoeae WHO L; [6]) [µg/mL] | MIC (N. gonorrhoeae WHO K; [7]) [µg/mL] | MIC (N. gonorrhoeae WHO G; [8]) [µg/mL] | MIC (N. gonorrhoeae FA1090; [9]) [µg/mL] | MIC [2, 10] [µg/mL] | MIC (N. gonorrhoeae H041; [11]) [µg/mL] | MIC (N. gonorrhoeae WHO Q; [12]) [µg/mL] | MIC (N. gonorrhoeae WHO Z; [13]) [µg/mL] | MIC (N. gonorrhoeae WHO L; [14]) [µg/mL] | MIC (N. gonorrhoeae WHO K; [15]) [µg/mL] | MIC (N. gonorrhoeae WHO G; [16]) [µg/mL] | MIC (N. gonorrhoeae FA1090; [17]) [µg/mL] | also measured |
| --- | --- | --- | --- | --- | --- | --- | --- | --- | --- | --- | --- | --- | --- | --- | --- | --- | --- | --- | --- | --- | --- |
| O=C(O)c1cccc2c1OB(O)[C@@H](NC(=O)C(NC(=O)N1CCN(CC3CNC3)C(=O)C1=O)c1c(F)cc(O)cc1F)C2 (stereo partly drawn) [Example 193, (3R)-3-(2-(4-(azetidin-3-ylmethyl)-2,3-dioxopiperazine-1-carboxamido)-2-(2,6-difluoro-4-hydroxyphenyl)acetamido)-2-hydroxy-3,4-dihydro-2H-benzo[e][1,2]oxaborinine-8-carboxylic acid] | 8 to 16 (≈ 13.3 to 26.6 µM) | 0.5 to 1 (≈ 0.831 to 1.66 µM) | 8 to 16 (≈ 13.3 to 26.6 µM) | 2 to 4 (≈ 3.33 to 6.65 µM) | 0.5 to 1 (≈ 0.831 to 1.66 µM) | > 64 | > 64 | > 64 | > 64 | > 64 | 16 to 32 (≈ 26.6 to 53.2 µM) | 1 to 2 (≈ 1.66 to 3.33 µM) | > 64 | – | – | – | – | – | – | – | – |
| NCCCN1CCN(C(=O)N[C@@H](C(=O)N[C@H]2Cc3cccc(C(=O)O)c3OB2O)c2c(O)cc(O)cc2F)C(=O)C1=O (single isomer, unassigned) [Example 195] | 8 to 16 (≈ 13.6 to 27.2 µM) | 0.5 to 1 (≈ 0.851 to 1.7 µM) | 8 to 16 (≈ 13.6 to 27.2 µM) | 2 to 4 (≈ 3.41 to 6.81 µM) | 2 to 4 (≈ 3.41 to 6.81 µM) | > 64 | > 64 | > 64 | > 64 | > 64 | 4 to 8 (≈ 6.81 to 13.6 µM) | 1 to 2 (≈ 1.7 to 3.41 µM) | 16 to 32 (≈ 27.2 to 54.5 µM) | – | – | – | – | – | – | – | – |
| NCCN1CCN(C(=O)N[C@H](C(=O)N[C@H]2Cc3cccc(C(=O)O)c3OB2O)c2c(F)cccc2F)C(=O)C1=O (single isomer, unassigned) [Example 204] | > 128 | 8 to 16 (≈ 14.3 to 28.6 µM) | > 128 | > 128 | 32 to 64 (≈ 57.2 to 114 µM) | – | – | – | – | – | – | – | – | > 64 | > 64 | > 64 | > 64 | > 64 | > 64 | 16 to 32 (≈ 28.6 to 57.2 µM) | MIC [2, 18]: > 64 µg/mL |
| CCN1CCN(C(=O)NC(C(=O)N[C@H]2Cc3cccc(C(=O)O)c3OB2O)c2cc([N+](=O)[O-])c(O)cc2F)C(=O)C1=O (stereo partly drawn) [Example 184, (3R)-3-(2-(4-ethyl-2,3-dioxopiperazine-1-carboxamido)-2-(2-fluoro-4-hydroxy-5-nitrophenyl)acetamido)-2-hydroxy-3,4-dihydro-2H-benzo[e][1,2]oxaborinine-8-carboxylic acid] | 32 to 64 (≈ 54.5 to 109 µM) | < 0.25 | 32 to 64 (≈ 54.5 to 109 µM) | 2 to 4 (≈ 3.41 to 6.81 µM) | 2 to 4 (≈ 3.41 to 6.81 µM) | 16 to 32 (≈ 27.2 to 54.5 µM) | 4 to 8 (≈ 6.81 to 13.6 µM) | 4 to 8 (≈ 6.81 to 13.6 µM) | 16 to 32 (≈ 27.2 to 54.5 µM) | 16 to 32 (≈ 27.2 to 54.5 µM) | 1 to 2 (≈ 1.7 to 3.41 µM) | < 0.125 | 4 to 8 (≈ 6.81 to 13.6 µM) | – | – | – | – | – | – | – | – |
| NCCN1CCN(C(=O)N[C@H](C(=O)N[C@H]2Cc3cccc(C(=O)O)c3OB2O)c2c(F)cccc2Cl)C(=O)C1=O (single isomer, unassigned) [Example 206] | > 128 | 32 to 64 (≈ 55.6 to 111 µM) | > 128 | > 128 | 32 to 64 (≈ 55.6 to 111 µM) | – | – | – | – | – | – | – | – | > 64 | > 64 | > 64 | > 64 | > 64 | > 64 | > 64 | MIC [2, 18]: > 64 µg/mL |
| NCCCN1CCN(C(=O)NC(C(=O)N[C@H]2Cc3cccc(C(=O)O)c3OB2O)c2c(F)cc(O)cc2F)C(=O)C1=O (stereo partly drawn) [Example 183, (3R)-3-(2-(4-(3-aminopropyl)-2,3-dioxopiperazine-1-carboxamido)-2-(2,6-difluoro-4-hydroxyphenyl)acetamido)-2-hydroxy-3,4-dihydro-2H-benzo[e][1,2]oxaborinine-8-carboxylic acid] | 8 to 16 (≈ 13.6 to 27.2 µM) | 0.5 to 1 (≈ 0.848 to 1.7 µM) | 8 to 16 (≈ 13.6 to 27.2 µM) | 2 to 4 (≈ 3.39 to 6.79 µM) | 2 to 4 (≈ 3.39 to 6.79 µM) | > 64 | > 64 | > 64 | > 64 | > 64 | 16 to 32 (≈ 27.2 to 54.3 µM) | 1 to 2 (≈ 1.7 to 3.39 µM) | 16 to 32 (≈ 27.2 to 54.3 µM) | – | – | – | – | – | – | – | – |
